{"source": "patent US9586966B2", "about": "“Piperazino[1,2-a]indol-1-ones and [1,4]diazepino[1,2-a]indol-one” (Hoffmann-La Roche Inc., priority 2013, dated 2017)", "key": {"[1]": {"tested_on": "human embryonic stem cell derived neural stem cells (NSCs)", "assay": "Neural stem cell proliferation assay (neurogenesis assay, ATP levels by CellTiterGlo)", "type": "cell-based", "conditions": "96 h, concentration at which 150% activity of control (100%) is reached, NSC proliferation, ATP levels after 4 days incubation, dose response 8 μM to 8 nM", "procedure": "Neural Stem Cell Proliferation Assay\nNeurogenic properties of small molecules are determined based on the proliferation of human embryonic stem cell derived neural stem cells (NSCs) which were derived via a dual smad inhibition as previously described (Chambers, S. M., et al., Highly efficient neural conversion of human ES and iPS cells by dual inhibition of SMAD signaling, Nature biotechnology, 2009. 27(3): p. 275-80.)\nCompounds respond is measured by the increase in cells based on ATP levels (Promega:CellTiterGlo®) after an incubation period of 4 days.\nNSCs are thawed and expanded over 3 passages. On the 14th day, NSCs are seeded in Polyornithin/Laminin coated 384 well plates at a cell density of 21′000 cells/cm^2 in a media volume of 38 μl. 4 hours after cell seeding, compound solutions are added at a volume of 2 μl. Stock solutions of the compounds (water, 5% DMSO) are diluted to obtain a dose response (11 points, dilution factor is 2), ranging from 8 μM to 8 nM. Controls are run to consistently determine the neurogenic properties of the cells:\nNegative (neutral) control is cell culture Media (final DMSO concentration: 0.25%).\n1. cell culture Media+100 ng/ml FGF2 (final DMSO concentration: 0.1%)\n2. cell culture Media+20 ng/ml EGF (final DMSO concentration: 0.1%)\n3. cell culture Media+100 ng/ml Wnt3a (final DMSO concentration: 0.1%)\nAfter 4 days incubation at 37° C., 5% CO2, the amount of ATP per well is quantified. The ATP concentration is proportional to the cell number. ATP is quantified by using the Promega CellTiterGlo® kit. The CellTiterGlo® reagents contain a cell lysis buffer, a thermo stable luciferase (UltraGlo™ recombinant luciferase), magnesium and luciferin. Luciferin reacts with ATP producing oxyluciferin, AMP and light. The luminescence signal is proportional to the ATP content.\nThe value of negative (neutral) control is determined for each assay plate by taking the average of 16 negative control wells. The neurogenic compound response is calculated for each compound as (compound/Negative Control)*100.\nThe values of EC150 from the dose response curve are determined for each test compound. The EC150 is the compound concentration at which 150% activity of control (100%) is reached."}}, "data": [{"smiles": "Cc1c2n(c3c(C)cc(C#N)cc13)CCCNC2=O", "note": "[Example 35, 7,11-Dimethyl-1-oxo-2,3,4,5-tetrahydro-[1,4]diazepino[1,2-a]indole-9-carbonitrile]", "values": [{"measurement": "melting point", "value": 255, "unit": "°C"}, {"measurement": "EC (150% of control)", "setting": "[1]", "value": 3.19, "unit": "µM"}]}, {"smiles": "COc1cc(CC(C)C)c2c(c1)cc1n2CCNC1=O", "note": "[Example 36, 8-Methoxy-6-(2-methylpropyl)-3,4-dihydro-2H-pyrazino[1,2-a]indol-1-one]", "values": [{"measurement": "melting point", "value": 175, "unit": "°C"}, {"measurement": "EC (150% of control)", "setting": "[1]", "value": 4.1, "unit": "µM"}]}, {"smiles": "CC(C)Cc1cc(OC(F)(F)F)cc2cc3n(c12)CCNC3=O", "note": "[Example 37, 6-(2-Methylpropyl)-8-(trifluoromethoxy)-3,4-dihydro-2H-pyrazino[1,2-a]indol-1-one]", "values": [{"measurement": "melting point", "value": 166, "unit": "°C"}, {"measurement": "EC (150% of control)", "setting": "[1]", "value": 0.89, "unit": "µM"}]}, {"smiles": "Cc1c2n(c3c(CC(C)C)cc(Cl)cc13)CCCNC2=O", "note": "[Example 38, 9-Chloro-11-methyl-7-(2-methylpropyl)-2,3,4,5-tetrahydro-[1,4]diazepino[1,2-a]indol-1-one]", "values": [{"measurement": "melting point", "value": 176, "unit": "°C"}, {"measurement": "EC (150% of control)", "setting": "[1]", "value": 0.37, "unit": "µM"}]}, {"smiles": "Cc1c2n(c3c(C)cc(Cl)cc13)CCCNC2=O", "note": "[Example 39, 9-Chloro-7,11-dimethyl-2,3,4,5-tetrahydro-[1,4]diazepino[1,2-a]indol-1-one]", "values": [{"measurement": "melting point", "value": 198, "unit": "°C"}, {"measurement": "EC (150% of control)", "setting": "[1]", "value": 0.36, "unit": "µM"}]}, {"smiles": "CC(C)Cc1cc(C#N)cc2cc3n(c12)CCCNC3=O", "note": "[Example 40, 7-(2-Methylpropyl)-1-oxo-2,3,4,5-tetrahydro-[1,4]diazepino[1,2-a]indole-9-carbonitrile]", "values": [{"measurement": "melting point", "value": 199, "unit": "°C"}, {"measurement": "EC (150% of control)", "setting": "[1]", "value": 0.55, "unit": "µM"}]}, {"smiles": "Cc1c2n(c3c(N4CCOCC4)cc(C#N)cc13)CCNC2=O", "note": "[Example 41, 10-Methyl-6-morpholin-4-yl-1-oxo-3,4-dihydro-2H-pyrazino[1,2-a]indole-8-carbonitrile]", "values": [{"measurement": "melting point", "value": 276, "unit": "°C"}, {"measurement": "EC (150% of control)", "setting": "[1]", "value": 0.092, "unit": "µM"}]}, {"smiles": "Cc1c2n(c3c(N4CCS(=O)(=O)CC4)cc(C#N)cc13)CCCNC2=O", "note": "[Example 42, 7-(1,1-Dioxo-1,4-thiazinan-4-yl)-11-methyl-1-oxo-2,3,4,5-tetrahydro-[1,4]diazepino[1,2-a]indole-9-carbonitrile]", "values": [{"measurement": "melting point", "value": 393, "unit": "°C"}, {"measurement": "EC (150% of control)", "setting": "[1]", "value": 0.077, "unit": "µM"}]}, {"smiles": "N#Cc1cc(N2CCS(=O)(=O)CC2)c2c(c1)cc1n2CCCNC1=O", "note": "[Example 43, 7-(1,1-Dioxo-1,4-thiazinan-4-yl)-1-oxo-2,3,4,5-tetrahydro-[1,4]diazepino[1,2-a]indole-9-carbonitrile]", "values": [{"measurement": "melting point", "value": 404.5, "unit": "°C"}, {"measurement": "EC (150% of control)", "setting": "[1]", "value": 0.98, "unit": "µM"}]}, {"smiles": "Cc1c2n(c3c(N4CCOCC4)cc(C#N)cc13)CCCNC2=O", "note": "[Example 44, 11-Methyl-7-morpholin-4-yl-1-oxo-2,3,4,5-tetrahydro-[1,4]diazepino[1,2-a]indole-9-carbonitrile]", "values": [{"measurement": "melting point", "value": 227, "unit": "°C"}, {"measurement": "EC (150% of control)", "setting": "[1]", "value": 0.046, "unit": "µM"}]}, {"smiles": "N#Cc1cc(N2CCOCC2)c2c(c1)cc1n2CCCNC1=O", "note": "[Example 45, 7-Morpholin-4-yl-1-oxo-2,3,4,5-tetrahydro-[1,4]diazepino[1,2-a]indole-9-carbonitrile]", "values": [{"measurement": "melting point", "value": 221, "unit": "°C"}, {"measurement": "EC (150% of control)", "setting": "[1]", "value": 0.24, "unit": "µM"}]}, {"smiles": "N#Cc1cc(N2CCOCC2)c2c(c1)cc1n2CCNC1=O", "note": "[Example 46, 6-Morpholin-4-yl-1-oxo-3,4-dihydro-2H-pyrazino[1,2-a]indole-8-carbonitrile]", "values": [{"measurement": "melting point", "value": 280, "unit": "°C"}, {"measurement": "EC (150% of control)", "setting": "[1]", "value": 0.04, "unit": "µM"}]}]}
